Data set [1] is described as follows: Solubility in PBS at pH 7.4. It counts as physicochemical.
Data set [2] addresses Adenosine receptor A2a (Homo sapiens, UniProt P29274). Description: biochemical.
Description: Displacement of [3H]ZM-241385 from human recombinant adenosine A2A receptor expressed in HEK293 cells
For the next data set, the species on record is Homo sapiens. Description: Selectivity for human adenosine A2A receptor over human adenosine A1 receptor.
The next data set addresses T1, Adenosine receptor A1 (Homo sapiens, UniProt P30542).
T1 sequence (P30542 whole entry): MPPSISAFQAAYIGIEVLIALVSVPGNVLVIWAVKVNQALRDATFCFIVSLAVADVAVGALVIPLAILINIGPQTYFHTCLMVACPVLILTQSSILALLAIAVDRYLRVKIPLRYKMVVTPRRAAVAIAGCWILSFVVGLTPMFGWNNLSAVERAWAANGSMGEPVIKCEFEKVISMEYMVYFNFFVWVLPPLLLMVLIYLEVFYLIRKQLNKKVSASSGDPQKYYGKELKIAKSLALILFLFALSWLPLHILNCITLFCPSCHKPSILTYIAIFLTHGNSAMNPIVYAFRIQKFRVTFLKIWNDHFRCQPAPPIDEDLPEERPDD
Description: biochemical.

Data set [3] in a line: Drug level in rat brain at 10 mg/kg, po after 2 hrs. The following applies: read-out: Drug uptake. More on the design: dose 10 mg/kg, route oral. Type of data set: ADME, organism-based.
Data set [4] has as its target Adenosine receptor A2a (Rattus norvegicus, UniProt P30543). Briefly: biochemical.
Description: Displacement of [3H]ZM241385 from rat recombinant adenosine A2A receptor expressed in CHO cells
Data set [5] is described as follows: AUC in rat at 10 mg/kg, po. Type of data set: ADME, organism-based. More on the design: dose 10 mg/kg, route oral. The following applies: plasma.
Data set [6] is described as follows: Dissociation constant, pKa of the compound. Type of data set: physicochemical.
In a further data set the target is T2, Adenosine receptor A2b (Homo sapiens, UniProt P29275).
T2 sequence (P29275 whole entry): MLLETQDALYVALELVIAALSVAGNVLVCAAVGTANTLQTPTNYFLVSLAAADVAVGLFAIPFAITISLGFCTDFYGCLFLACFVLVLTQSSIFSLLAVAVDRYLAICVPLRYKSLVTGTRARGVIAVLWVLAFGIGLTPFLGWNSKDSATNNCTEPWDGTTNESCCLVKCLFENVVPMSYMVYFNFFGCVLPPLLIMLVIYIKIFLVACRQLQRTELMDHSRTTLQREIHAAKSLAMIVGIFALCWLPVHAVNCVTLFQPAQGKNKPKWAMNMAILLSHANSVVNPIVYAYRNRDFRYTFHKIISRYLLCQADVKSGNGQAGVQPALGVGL
Briefly: Displacement of [3H]MRS1754 from human adenosine A2B receptor. On the technique in general: Displacement assays read how much labelled ligand stays bound in the presence of the test substance.

The nature of data set [7]: Lipophilicity, log D of the compound. Type of data set: physicochemical. The following applies: octanol/water.
In a further data set the target is T3, Adenosine receptor A3 (Homo sapiens, UniProt P0DMS8).
T3 sequence (P0DMS8 whole entry): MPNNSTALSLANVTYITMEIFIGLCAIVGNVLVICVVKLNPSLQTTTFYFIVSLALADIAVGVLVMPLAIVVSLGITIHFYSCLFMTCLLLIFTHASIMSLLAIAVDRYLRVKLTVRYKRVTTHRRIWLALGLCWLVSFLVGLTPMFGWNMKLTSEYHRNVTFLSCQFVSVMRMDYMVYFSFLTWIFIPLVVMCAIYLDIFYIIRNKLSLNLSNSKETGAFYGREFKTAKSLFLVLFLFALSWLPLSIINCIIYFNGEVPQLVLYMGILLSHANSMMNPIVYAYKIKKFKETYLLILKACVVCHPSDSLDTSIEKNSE
Description: Displacement of [125I]AB-MECA from human adenosine A3 receptor.

Data set [8] can be described thus: Metabolic stability assessed as intrinsic clearance in human liver microsomes. Type of data set: ADME, Microsome. (In general: Liver microsomes are a subcellular fraction often used to study metabolism.)
Data set [9] in a line: Solubility in water. Type of data set: physicochemical.
The nature of data set [10]: Oral bioavailability in rat at 10 mg/kg. Type of data set: ADME, organism-based. The following applies: in vivo.

In brackets after ≈: the same amount, converted by molar mass. Where only a bound is given, the exact number is not on record here.

Adenosine receptor A2a (Homo sapiens, UniProt P29274), sequence (P29274 whole entry): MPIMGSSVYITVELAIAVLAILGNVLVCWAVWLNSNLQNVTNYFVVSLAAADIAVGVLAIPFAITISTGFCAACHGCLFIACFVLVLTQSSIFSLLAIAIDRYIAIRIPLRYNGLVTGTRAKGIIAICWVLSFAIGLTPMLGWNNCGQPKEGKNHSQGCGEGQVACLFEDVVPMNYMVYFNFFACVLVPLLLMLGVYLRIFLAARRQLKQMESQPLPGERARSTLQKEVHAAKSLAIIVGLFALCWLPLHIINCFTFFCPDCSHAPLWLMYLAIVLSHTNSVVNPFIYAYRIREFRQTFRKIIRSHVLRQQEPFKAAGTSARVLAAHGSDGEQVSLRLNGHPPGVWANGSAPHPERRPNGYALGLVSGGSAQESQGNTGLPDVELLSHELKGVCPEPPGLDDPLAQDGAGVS
Adenosine receptor A2a (Rattus norvegicus, UniProt P30543), sequence (P30543 whole entry): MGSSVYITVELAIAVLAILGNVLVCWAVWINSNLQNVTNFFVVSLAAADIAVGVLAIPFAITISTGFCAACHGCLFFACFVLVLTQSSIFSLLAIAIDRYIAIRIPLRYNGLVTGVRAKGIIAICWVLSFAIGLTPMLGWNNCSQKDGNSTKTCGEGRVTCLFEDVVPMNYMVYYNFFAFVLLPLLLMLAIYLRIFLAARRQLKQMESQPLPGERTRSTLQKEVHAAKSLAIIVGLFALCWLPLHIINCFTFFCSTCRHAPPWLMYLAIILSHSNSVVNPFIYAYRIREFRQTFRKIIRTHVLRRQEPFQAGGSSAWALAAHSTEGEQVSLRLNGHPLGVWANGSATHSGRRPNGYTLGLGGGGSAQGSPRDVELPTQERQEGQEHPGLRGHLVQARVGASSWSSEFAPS
Description for Adenosine receptor A1: Displacement of [3H]DPCPX from human recombinant adenosine A1 receptor expressed in HEK293 cells

On to `COCCOc1ccc(N2CCN(CCn3ncc4c3nc(N)n3nc(-c5ccco5)nc43)CC2)cc1` [PRELADENANT], for which the solubility (in general, the dissolved amount per volume that the medium holds) in data set [1] (buffer) is under 0.01 µg/mL.

On to `CN(C)CC(=O)Nc1cc(-n2cccn2)nc(-c2ccco2)n1`, for which the values for the Ki at Adenosine receptor A2a [2] and at Adenosine receptor A1 were 5.2 nM and 28 nM, respectively. Further, the Ratio Ki in the data set filed under Homo sapiens was determined as 5.

`O=C(CN1CCOCC1)Nc1cc(-n2cccn2)nc(-c2ccco2)n1`: the Ki (as a rule, the equilibrium dissociation constant of an inhibitor or competing ligand from its target) is 1.6 nM at Adenosine receptor A2a [2] and 63 nM on Adenosine receptor A1. Moreover, in the data set listed under Homo sapiens, the Ratio Ki turned out to be 39.

Consider `CC(=O)Nc1cc(-n2cccn2)nc(-c2ccco2)n1`, for which, in the data set filed under Homo sapiens, the Ratio Ki stood at 15. Moreover, on Adenosine receptor A1, affinity was put at a Ki of 9.2 nM.

Take `CN1CCN(CC(=O)Nc2cc(-c3nccs3)nc(-c3ccco3)n2)CC1`: the Ki at Adenosine receptor A2a [2] is 0.9 nM; on Adenosine receptor A1 it was 218 nM; on Adenosine receptor A2a [4] it was 11 nM. Further, the concentration at 2 h in data set [3] stood at 3200 ng/g. Further, the Ratio Ki in the data set filed under Homo sapiens was found to be 238.

For `CN1CCN(CC(=O)Nc2cc(-n3cccn3)nc(-c3ccco3)n2)CC1`, the Ki at Adenosine receptor A2a [2] stood at 2.7 nM; at Adenosine receptor A1, 266 nM; at Adenosine receptor A2a [4], 26 nM; on Adenosine receptor A2b, 35 nM; on Adenosine receptor A3, 660 nM. In addition, the concentration at 2 h in [3] was determined as 2700 ng/g. Further, the AUC (in general, concentration integrated over time) in data set [5] worked out at 2870 ng·h/mL. Moreover, the Ratio Ki in the data set listed under Homo sapiens worked out at 99. Moreover, the pKa (usually the pH at which an ionisable group is half protonated) in [6] stood at 7.9. Besides, the logD (commonly the decadic logarithm of the distribution of all forms, ionised or not, between an organic phase and buffer at a given pH) in data set [7] worked out at 2.2. The CLint scaled (commonly the rate of metabolic loss divided by the concentration) in [8] was 6 mL/min/kg. This compound had a solubility in [9] of over 25000 µg/mL. Besides, the bioavailability (as a rule, dose-corrected exposure relative to a reference, in per cent) in [10] came to 79%.

Regarding `Nc1cc(-n2cccn2)nc(-c2ccco2)n1`, the Ki at Adenosine receptor A2a [2] worked out at 2.9 nM; on Adenosine receptor A1, 56 nM. Also, the solubility in data set [1] (PBS, read-out: Solubility) came out at 80 µg/mL (≈ 352 µM). Further, the Ratio Ki in the data set filed under Homo sapiens worked out at 20. In addition, in data set [8], the CLint scaled amounted to 73 mL/min/kg.

On to `Cc1cc(C)n(-c2cc(NC(=O)CN3CCN(C)CC3)nc(-c3ccco3)n2)n1`, for which the results for the Ki on Adenosine receptor A2a [2], on Adenosine receptor A1 and on Adenosine receptor A2a [4] were 2 nM, 1730 nM and 14 nM, respectively. Also, the concentration at 2 h in data set [3] came out at 600 ng/g. Besides, the Ratio Ki in the data set filed under Homo sapiens was 864.

The values are drawn from ChEMBL document CHEMBL1140734, “Identification of novel, water-soluble, 2-amino-N-pyrimidin-4-yl acetamides as A2A receptor antagonists with in vivo efficacy” (J Med Chem, 2008).
